Data on 31 molecules can be found in ChEMBL document CHEMBL5375979, “Chemical, Biochemical, Cellular, and Physiological Characterization of Leucettinib-21, a Down Syndrome and Alzheimer's Disease Drug Candidate” (J Med Chem, 2023).

Values joined by “and” are separate entries in the source; they are usually repeats but may differ in a detail not shown here. Equal entries are not always repeated.

For assay [1], the target named is Dual specificity tyrosine-phosphorylation-regulated kinase 1B (Homo sapiens, UniProt Q9Y463).
Chain of Dual specificity tyrosine-phosphorylation-regulated kinase 1B (Q9Y463 whole entry): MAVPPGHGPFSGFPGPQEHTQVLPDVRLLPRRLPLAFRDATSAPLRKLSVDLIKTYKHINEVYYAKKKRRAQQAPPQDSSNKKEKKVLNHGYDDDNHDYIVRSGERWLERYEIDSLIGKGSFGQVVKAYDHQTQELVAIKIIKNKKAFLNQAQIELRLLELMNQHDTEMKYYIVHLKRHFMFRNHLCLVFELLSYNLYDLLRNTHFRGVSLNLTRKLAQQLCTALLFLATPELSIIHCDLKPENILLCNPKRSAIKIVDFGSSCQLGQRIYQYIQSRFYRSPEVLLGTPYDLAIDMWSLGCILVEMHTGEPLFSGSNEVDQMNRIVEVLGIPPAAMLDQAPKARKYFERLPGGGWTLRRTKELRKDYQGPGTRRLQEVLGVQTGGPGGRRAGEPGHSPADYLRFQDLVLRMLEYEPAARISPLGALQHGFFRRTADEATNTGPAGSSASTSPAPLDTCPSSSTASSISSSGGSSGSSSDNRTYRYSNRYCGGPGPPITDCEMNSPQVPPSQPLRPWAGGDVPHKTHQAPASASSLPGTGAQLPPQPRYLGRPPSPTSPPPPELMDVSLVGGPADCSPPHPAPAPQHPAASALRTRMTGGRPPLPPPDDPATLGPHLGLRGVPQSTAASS
The target of assay [2] is Dual specificity protein kinase CLK4 (Homo sapiens, UniProt Q9HAZ1).
Chain of Dual specificity protein kinase CLK4 (Q9HAZ1 whole entry): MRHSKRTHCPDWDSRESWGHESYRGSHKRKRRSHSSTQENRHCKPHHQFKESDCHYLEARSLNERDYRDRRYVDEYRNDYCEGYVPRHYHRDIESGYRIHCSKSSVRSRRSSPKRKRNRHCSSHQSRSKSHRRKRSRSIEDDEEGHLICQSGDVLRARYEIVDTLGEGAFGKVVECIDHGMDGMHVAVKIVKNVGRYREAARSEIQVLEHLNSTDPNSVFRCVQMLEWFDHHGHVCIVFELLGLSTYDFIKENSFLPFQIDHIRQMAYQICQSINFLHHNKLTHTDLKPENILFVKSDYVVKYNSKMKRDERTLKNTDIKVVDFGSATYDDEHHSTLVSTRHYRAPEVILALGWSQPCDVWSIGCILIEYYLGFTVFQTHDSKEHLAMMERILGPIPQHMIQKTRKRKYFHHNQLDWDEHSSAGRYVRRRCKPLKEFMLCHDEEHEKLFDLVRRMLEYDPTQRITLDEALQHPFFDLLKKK
Assay [3] addresses Dual specificity tyrosine-phosphorylation-regulated kinase 1A (Homo sapiens, UniProt Q13627).
For assay [4], the target named is Dual specificity protein kinase CLK1 (Homo sapiens, UniProt P49759).
Chain of Dual specificity protein kinase CLK1 (P49759 whole entry): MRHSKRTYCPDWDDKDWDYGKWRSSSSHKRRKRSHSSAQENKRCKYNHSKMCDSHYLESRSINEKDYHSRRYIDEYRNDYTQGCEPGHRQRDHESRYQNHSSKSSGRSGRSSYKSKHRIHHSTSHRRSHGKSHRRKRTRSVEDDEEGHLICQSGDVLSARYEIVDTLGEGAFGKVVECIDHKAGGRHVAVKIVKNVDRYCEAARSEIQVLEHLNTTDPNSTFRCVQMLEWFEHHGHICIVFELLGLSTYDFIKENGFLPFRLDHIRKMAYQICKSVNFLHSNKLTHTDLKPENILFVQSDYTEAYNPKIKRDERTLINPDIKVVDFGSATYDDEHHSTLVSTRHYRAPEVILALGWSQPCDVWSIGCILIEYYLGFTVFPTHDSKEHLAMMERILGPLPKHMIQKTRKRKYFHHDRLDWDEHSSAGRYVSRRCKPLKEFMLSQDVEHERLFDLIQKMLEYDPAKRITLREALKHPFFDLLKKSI
Another assay deals with Casein kinase I. It counts as protein assay, Homo sapiens.
Assay [5] concerns the target Glycogen synthase kinase-3 (Homo sapiens, UniProt P49840+P49841). It counts as protein assay.
The target of assay [6] is Cyclin-dependent kinase 5 (Homo sapiens, UniProt Q00535).
Chain of Cyclin-dependent kinase 5 (Q00535 whole entry): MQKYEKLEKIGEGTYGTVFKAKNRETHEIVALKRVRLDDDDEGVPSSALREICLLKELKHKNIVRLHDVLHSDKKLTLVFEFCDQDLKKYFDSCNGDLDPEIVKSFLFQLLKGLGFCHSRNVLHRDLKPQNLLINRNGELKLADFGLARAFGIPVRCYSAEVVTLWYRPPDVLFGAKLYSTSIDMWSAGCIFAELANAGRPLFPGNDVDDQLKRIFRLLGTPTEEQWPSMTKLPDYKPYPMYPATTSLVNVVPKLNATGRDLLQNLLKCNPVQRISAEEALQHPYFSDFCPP
The target of assay [7] is T1, Dual specificity tyrosine-phosphorylation-regulated kinase 4 (Homo sapiens, UniProt Q9NR20).
T1 sequence (Q9NR20 whole entry): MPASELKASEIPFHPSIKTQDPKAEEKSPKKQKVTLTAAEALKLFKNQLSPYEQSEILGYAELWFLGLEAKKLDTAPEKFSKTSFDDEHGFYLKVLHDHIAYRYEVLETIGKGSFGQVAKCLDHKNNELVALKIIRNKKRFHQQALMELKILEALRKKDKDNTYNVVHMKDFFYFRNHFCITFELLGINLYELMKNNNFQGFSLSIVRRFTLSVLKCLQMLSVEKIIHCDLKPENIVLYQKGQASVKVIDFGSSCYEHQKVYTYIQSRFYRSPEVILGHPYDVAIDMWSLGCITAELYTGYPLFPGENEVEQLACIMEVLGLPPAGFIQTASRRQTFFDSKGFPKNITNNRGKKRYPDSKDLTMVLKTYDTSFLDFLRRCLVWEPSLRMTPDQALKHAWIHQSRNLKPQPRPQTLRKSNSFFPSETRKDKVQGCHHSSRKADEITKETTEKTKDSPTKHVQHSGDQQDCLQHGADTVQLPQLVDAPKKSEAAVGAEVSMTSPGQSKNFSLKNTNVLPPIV

The target in assay [8] is Dual specificity protein kinase CLK3 (Homo sapiens, UniProt P49761).
Chain of Dual specificity protein kinase CLK3 (P49761 whole entry): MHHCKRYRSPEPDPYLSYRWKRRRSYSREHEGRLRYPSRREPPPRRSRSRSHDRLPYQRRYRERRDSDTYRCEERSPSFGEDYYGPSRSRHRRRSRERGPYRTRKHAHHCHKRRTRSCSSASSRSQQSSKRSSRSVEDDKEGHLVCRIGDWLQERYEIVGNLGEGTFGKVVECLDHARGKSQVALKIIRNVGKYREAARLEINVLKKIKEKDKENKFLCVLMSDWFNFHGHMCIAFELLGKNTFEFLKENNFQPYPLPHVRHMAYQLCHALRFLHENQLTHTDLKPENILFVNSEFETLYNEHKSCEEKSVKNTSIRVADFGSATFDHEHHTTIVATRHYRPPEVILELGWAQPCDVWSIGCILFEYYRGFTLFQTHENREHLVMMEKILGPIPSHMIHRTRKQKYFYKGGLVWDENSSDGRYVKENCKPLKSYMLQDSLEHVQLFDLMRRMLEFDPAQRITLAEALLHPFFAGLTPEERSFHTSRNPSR
For assay [9], the target named is T2, Dual specificity tyrosine-phosphorylation-regulated kinase 2 (Homo sapiens, UniProt Q92630).
T2 sequence (Q92630 whole entry): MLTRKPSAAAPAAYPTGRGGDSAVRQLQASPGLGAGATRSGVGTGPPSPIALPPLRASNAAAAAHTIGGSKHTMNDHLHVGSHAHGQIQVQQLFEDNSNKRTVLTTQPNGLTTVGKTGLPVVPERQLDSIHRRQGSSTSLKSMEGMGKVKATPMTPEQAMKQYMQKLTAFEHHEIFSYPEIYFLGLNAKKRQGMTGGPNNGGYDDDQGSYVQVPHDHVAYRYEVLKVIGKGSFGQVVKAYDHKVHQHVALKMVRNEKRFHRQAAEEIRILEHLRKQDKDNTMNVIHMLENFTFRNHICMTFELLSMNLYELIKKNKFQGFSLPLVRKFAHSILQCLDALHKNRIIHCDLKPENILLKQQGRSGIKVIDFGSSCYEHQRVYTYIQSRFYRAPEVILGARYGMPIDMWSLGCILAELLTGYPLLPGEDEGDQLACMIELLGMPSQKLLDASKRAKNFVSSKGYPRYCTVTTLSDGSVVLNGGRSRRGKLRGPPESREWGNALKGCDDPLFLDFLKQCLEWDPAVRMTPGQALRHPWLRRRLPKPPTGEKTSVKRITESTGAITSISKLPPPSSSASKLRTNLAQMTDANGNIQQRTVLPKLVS

Broadly, the IC50 is the concentration that inhibits the measured activity by half. Low readings indicate higher potency, high ones lower potency. For the molecule `COC[C@@H](CC(C)C)NC1=N/C(=C\c2ccc3c(cnn3C)c2)C(=O)N1`, the IC50 in assay [1] was 0.358 µM; in assay [2] it was 0.189 µM.

Consider `COC[C@@H](CC(C)C)NC1=N/C(=C\c2ccc3c(c2)ncn3C)C(=O)N1`, for which the IC50 in assay [1], in assay [3], in assay [2] and in assay [4] was greater than 10 µM in each case.

For the molecule `COC[C@@H](CC(C)C)NC1=N/C(=C\c2ccc3scnc3c2)C(=O)N1C`, the IC50 in [1], in assay [3], in [2] and in assay [4] was greater than 10 µM in each case.

Turning to `COC[C@@H](CC(C)C)NC1=N/C(=C\c2ccc3[nH]ncc3c2)C(=O)N1`, the figures for the IC50 in assay [1], in assay [2] and in [4] were 0.115 µM, 0.245 µM and 0.31 µM, respectively.

As for `COC[C@@H](CC(C)C)NC1=N/C(=C\c2ccc3ncn(C)c3c2)C(=O)N1`, the IC50 in assay [3] is 0.0787 µM; in assay [2], 0.0117 µM; in assay [4], 0.0382 µM.

As for `COC[C@@H](CC(C)C)NC1=N/C(=C\c2ccc3nnsc3c2)C(=O)N1`, the midpoint of inhibition in assay [2], the IC50, lay at 0.268 µM.

Regarding `COC[C@@H](CC(C)C)NC1=N/C(=C\c2ccc3c(c2)OCO3)C(=O)N1C`, the IC50 in assay [1] turned out to be 0.0411 µM; in assay [3] it was 0.0535 µM; in assay [2] it was 0.0771 µM; in assay [4], 0.131 µM.

Turning to `COC[C@@H](CC(C)C)NC1=N/C(=C\c2ccc3c(c2)CCO3)C(=O)N1C`, the results for the IC50 in assay [1], in [3] and in [2] were 0.17 µM, 0.488 µM and 0.578 µM, respectively.

Consider `COC[C@@H](CC(C)C)NC1=N/C(=C\c2ccc3c(c2)ncn3C)C(=O)N1C`, for which the IC50 in assay [1], in [3], in [2] and in assay [4] was greater than 10 µM throughout.

Consider `COC[C@@H](CC(C)C)NC1=N/C(=C\c2ccc3[nH]ccc3c2)C(=O)N1`, for which the IC50 was greater than 10 µM in assay [1], 4.79 µM in assay [3] and greater than 10 µM in [2].

Consider `COC[C@@H](CC(C)C)NC1=N/C(=C\c2ccc3ncoc3c2)C(=O)N1`, for which the IC50 in [4] amounted to 0.0142 µM.

Take `COC[C@@H](CC(C)C)NC1=N/C(=C\c2ccc3[nH]cnc3c2)C(=O)N1`: the IC50 in assay [1] is 1.08 µM; in assay [3], 0.0766 µM; in [2], 0.0412 µM; in assay [4], 0.104 µM.

On to `CN1C(=O)/C(=C/c2ccc3c(c2)OCO3)N=C1N` [LEUCETTAMINE B], for which the IC50 (at Casein kinase I; in assay [5]) was greater than 10 µM throughout.

On to `COC[C@@H](CC(C)C)NC1=N/C(=C\c2ccc3c(c2)CCO3)C(=O)N1`, for which the IC50 came to 0.0716 µM in assay [1], 0.0116 µM in assay [3], 0.014 µM in assay [2] and 0.0567 µM in assay [4].

With `COC[C@@H](CC(C)C)NC1=N/C(=C\c2ccc3ncsc3c2)C(=O)N1C`, the IC50 in assay [1] is 0.0096 µM and 0.0166 µM; at Casein kinase I, greater than 10 µM; in assay [2] it was 0.0116 µM and 0.0124 µM; in assay [6], greater than 10 µM; in assay [7], 0.525 µM; in [5], 4.481 µM.

Take `COC[C@@H](CC(C)C)NC1=N/C(=C\c2ccc3c(c2)OCO3)C(=O)N1`: the IC50 in [1] worked out at 0.023 µM; in assay [3], 0.005 µM; in [2], 0.0135 µM; in assay [4], 0.001 µM.

With `COC[C@@H](CC(C)C)NC1=N/C(=C\c2ccc3nnsc3c2)C(=O)N1C`, the IC50 in [1] was determined as 0.751 µM; in assay [3] it was 0.95 µM; in assay [2], 0.861 µM; in assay [4], 0.734 µM.

`COC[C@@H](CC(C)C)NC1=N/C(=C\c2ccc3ncn(C)c3c2)C(=O)N1C`: the IC50 in assay [4] is 0.0376 µM.

On to `COC[C@@H](CC(C)C)NC1=N/C(=C\c2ccc3[nH]cnc3c2)C(=O)N1C`, for which the IC50 in assay [3] was determined as 0.112 µM; in assay [2], 0.0021 µM.

Consider `COC[C@@H](CC(C)C)NC1=N/C(=C\c2ccc3nn(C)cc3c2)C(=O)N1`, for which the IC50 came to 0.0783 µM in assay [1] and 0.191 µM in [4].

In the case of `COC[C@@H](CC(C)C)NC1=N/C(=C\c2ccc3[nH]ncc3c2)C(=O)N1C`, the IC50 in assay [1] was found to be 0.134 µM; in assay [3] it was 0.196 µM; in assay [2] it was 0.166 µM.

Take `COC[C@@H](CC(C)C)NC1=N/C(=C/c2ccc3ncoc3c2)C(=O)N1C`: the results for the IC50 in [2] and in assay [4] were 0.0163 µM and 0.0188 µM, respectively.

Consider `COC[C@@H](CC(C)C)NC1=N/C(=C\c2ccc3nn(C)cc3c2)C(=O)N1C`, for which the IC50 came out at 0.153 µM in assay [2] and 0.258 µM in [4].

In turn, `COC[C@@H](CC(C)C)NC1=N/C(=C\c2ccc3nc(C)sc3c2)C(=O)N1` came in with an IC50 in assay [2] of 0.0527 µM.

Consider `CCN1C(=O)/C(=C/c2ccc3ncsc3c2)N=C1N[C@@H](COC)CC(C)C`, for which the IC50 at Casein kinase I is greater than 10 µM; in assay [2], 0.0585 µM; in assay [6], greater than 10 µM; in assay [7], 2.56 µM; in assay [5], 7.867 µM; in assay [8], 1.36 µM. The figures for the IC50 in [9] and in assay [4] were 0.165 µM and 0.2 µM, respectively.

With `O=C1NC(Nc2ccccc2)=N/C1=C\c1ccc2c(c1)OCO2`, the IC50 against Casein kinase I is greater than 10 µM; in [2] it was 0.01 µM; in [7] it was 0.507 µM; in assay [5] it was 1.544 µM; in [8] it was 5.84 µM.

Turning to `COC[C@@H](CC(C)C)NC1=N/C(=C\c2ccc3c(ccn3C)c2)C(=O)N1C`, the IC50 in assay [1], in assay [3], in assay [2] and in [4] was greater than 10 µM throughout.

As to `COC[C@@H](CC(C)C)NC1=N/C(=C\c2ccc3c(cnn3C)c2)C(=O)N1C`, the values for the IC50 in assay [3] and in assay [4] were 0.399 µM and 0.408 µM, respectively.

`COC[C@@H](CC(C)C)NC1=N/C(=C\c2ccc3nc(C)sc3c2)C(=O)N1C`: the half-maximal inhibitory concentration (IC50) in assay [3] was 0.511 µM; in [2], 0.673 µM; in assay [4], 0.496 µM.

`COC[C@@H](CC(C)C)NC1=N/C(=C\c2ccc3[nH]ccc3c2)C(=O)N1C`: the IC50 in assay [3] is 3.93 µM; in assay [2] it was greater than 10 µM.

As for `COC[C@@H](CC(C)C)NC1=N/C(=C\c2ccc3c(ccn3C)c2)C(=O)N1`, the figures for the IC50 in assay [1], in [2] and in [4] were 8.17 µM, greater than 10 µM and greater than 10 µM, respectively.
